Assays:
[1] = Absorbance and fluorescence spectra of the agents; type: physicochemical; conditions: for Excitation (DMSO): excitation maximum in 100% DMSO; for Excitation(MeOH): excitation maximum in absolute methanol; for ExcitationddH2O: excitation maximum in distilled/deionized water; for Emission(DMSO): fluorescence emission maximum in DMSO; for Emission(MeOH): fluorescence emission maximum in MeOH; for EmissionddH2O: fluorescence emission maximum in ddH2O
Protocol: Absorbance spectra of the agents were measured using a UV-Vis spectrometer (PerkinElmer Lambda™ 20, PerkinElmer, Inc., Waltham Mass.) in wavelengths ranging from 200-to-800 nm in 100% dimethylsulfoxide (DMSO), absolute methanol (MeOH), and distilled/deionized water (ddH2O). The wavelength corresponding to the maximum absorbance is recorded and used as the excitation wavelength for future fluorescence measurements.
The fluorescence spectra of the agents were collected in DMSO, MeOH, and ddH2O under continuous excitation using a xenon short arc light source (Ushio UXL 75W, Ushio America, Inc., Cyress Calif.) equipped fluorimeter (350-900 nm; PTI Fluorimeter, Photon Technology International Birmingham, N.J.). A+ indicates binding to nerves using the ex vivo histochemical assay.

nerve tissue sections = experiment: Ex vivo staining of nerve tissue sections by the agents (histochemical assay); type: binding, rat; design: key to Nerve binding, ex vivo: A+ indicates binding to nerves using the ex vivo histochemical assay; conditions: for Nerve binding, ex vivo: 10 uM agent, 20 minutes, nerve tissue sections; for staining of the trigeminal nerves: rat trigeminal nerve sections, FIG. 1
Excerpt: Various nerves including sciatic, femoral, brachial plexus, trigeminal, optic, and penile were harvested from male Sprague Dawley rats or male CD-1 mice. Tissue was fixed by perfusion and/or post-fixation with formalin. Following post-fixation, tissue was cryoprotected in a 20% sucrose solution made in phosphate buffered saline (PBS). Nerves were then flash-frozen using methanol and dry ice in OCT media. In some cases, PVDF membranes were used to help keep the nerves vertical in the OCT media. Thin sections (5-10 microns) were sliced on a Leica microtome (Leica Microsystems GmbH, Wetzlar Germany) and stored in a −80° C. freezer prior to staining with agents (1)-(5).
The agents were dissolved in DMSO to make a 10 mM stock solution. Slides containing nerve tissue sections were rinsed three times with PBS. The tissue sections were incubated with a solution of 10 uM of each fluorophore diluted in either PBS or a mixture of 99 uL DMSO, 100 uL cremaphor, 600 uL rat serum, and 200 uL PBS for 20 minutes. The slides were then washed with PBS for 5 min three times, cover-slipped with Vectashield and imaged on a Zeiss Axioimager microscope (Carl Zeiss Meditec, Inc., Oberkochen, Germany) at 200× magnification. A custom filter cube (excitation filter: 387 nm with 11 nm bandpass, 409 nm dichroic mirror; emission filter 409 nm long pass) was used to collect images for examination of morphology and for image analysis.
The control slides, containing the nerves with no agent (not shown), was negative under the same imaging conditions.

[2] = Dynamic light scattering measurement of aqueous solubility; type: physicochemical; conditions: 25° C., angle of 173°, in nm (unit assumed)
Protocol: Dynamic light scattering spectroscopy was used to measure aqueous solubility. Measurements were collected on a Malvern HPPS500 spectrometer (Malvern Instruments Inc., Southborough, Mass.). Samples were measured in a low volume disposable cuvette at 25° C., at an angle of 173°. Each sample was analyzed in duplicate. Z average measurements were taken to determine the relative molecular “size” of the formulation in terms of the hydrodynamic diameter (DH) radius in solution. DH is inversely related the z-average translational diffusion coefficient (D) in the solution.

nerves = experiment: In vivo fluorescence imaging of nerves; design: species or system mice; conditions: for nerve-to-adipose tissue ratio: fluorescence emission of 600 nm, compared to agents (4) and (5), FIG. 2
Protocol: To assess the efficacy of the sulfonamide agents in-vivo the agents were formulated using the following excipients: 5-20% propylene glycol (v/v; JT Baker 9402-01), 5-30% 2-Hydroxylpropyl-β-Cyclodextrin (w/v; Sigma H5784) and 70-90% distilled/deionized water (v/v).
To prepare the pharmaceutical carrier, each excipient is added individually beginning with propylene glycol. Propylene glycol is added directly to the agent and vortexed for approximately 1 minute to guarantee maximal dispersal of the agent in the excipient. The next excipient to be added to the solution is 2-Hydroxylpropyl-β-Cyclodextrin. Cyclodextrin's are cyclic (R-1,4) linked oligosaccharides containing a relatively hydrophobic central cavity and hydrophilic outer surface. The application of cyclodextrin in formulation is to enhance the solubility of a compound in aqueous solutions. In formulation of the sulfonamide analogs a final concentration of 5-15%; 2-Hydroxypropyl β-cyclodextrin (w/v) is added to the solution. The formulation is again vortexed for 1-5 minutes and the pH adjusted to a final range between 4-5. The final step in the formulation is to bring the solution to the volume with distilled/deionized water.
Male CD-1 mice between 25-35 grams were purchased from Charles River Laboratories (Wilmington, Mass.). Prior to administration of the agent, animals were briefly anesthetized using 2% isofluorane. Each agent was then administered in a 15.2 mg/kg dose via tail vein catheterization. Each rodent was allowed to recover from anesthesia prior to returning to the home cage.
Structure (2) and (3) were administered at an average of 15 mg/kg formulated in the pharmaceutical carrier. Formulated agents were administered in mice 4 hours prior to imaging using a Zeiss Lumara microscope (Carl Zeiss Meditec, Inc., Oberkochen, Germany) with an attached CRI Nuance™ camera for multispectral fluorescence imaging (Cambridge Research & Instrumentation, Inc., Woburn, Mass.). The excitation wavelengths used were 406/15 nm or 460/60 nm.
The adjacent muscle tissues had very low background binding. […]

SMILES | Excitation (DMSO) [1] | Excitation(MeOH) [1] | ExcitationddH2O [1] | Emission(DMSO) [1] | Emission(MeOH) [1] | EmissionddH2O [1] | Nerve binding, ex vivo (nerve tissue sections) | staining of the trigeminal nerves (nerve tissue sections) | Z-average [2] | time at which nerve-to-muscle ratio is best (nerves; mice, FIG. 4) | nerve-to-adipose tissue ratio (nerves)
COc1cc(/C=C/c2ccc(S(=O)(=O)N3CCOCC3)cc2)ccc1/C=C/c1ccc(N)cc1 [(1)] | 422 nm | 392 nm | 380 nm | 621 nm | 604 nm | 581 nm | + | myelinated donut-shaped structures are visible | – | – | –
COc1cc(/C=C/c2ccc(S(=O)(=O)N(CCO)CCO)cc2)ccc1/C=C/c1ccc(N)cc1 [(2)] | 392 nm | 391 nm | 409 nm | 600 nm | 680 nm | 620 nm | + | myelinated donut-shaped structures are visible | – | – | –
COc1cc(/C=C/c2ccc(S(=O)(=O)N3CCN(CCO)CC3)cc2)ccc1/C=C/c1ccc(N)cc1.Cl [(3)] | 388 nm | 380 nm | 412 nm | 615 nm | 488 nm | 626 nm | + | myelinated donut-shaped structures are visible | 29.70 | – | –
COc1cc(/C=C/c2ccc(S(C)(=O)=O)cc2)ccc1/C=C/c1ccc(N)cc1 [(4)] | – | – | – | – | – | – | – | – | 2210.00 | – | –
COc1cc(/C=C/c2ccc(C#N)cc2)ccc1/C=C/c1ccc(N)cc1 [(5)] | – | – | – | – | – | – | – | – | 7365.00 | four | –
COc1cc(/C=C/c2ccc(S(=O)(=O)N(CCO)CCO)cc2)ccc1/C=C/c1ccc(N)cc1 [Structure 2] | – | – | – | – | – | – | – | – | – | – | higher
COc1cc(/C=C/c2ccc(S(=O)(=O)N3CCN(CCO)CC3)cc2)ccc1/C=C/c1ccc(N)cc1.Cl [Structure 3] | – | – | – | – | – | – | – | – | – | – | higher
